Reference: US20250270170A1, “2,3-DIMETHOXY-5-METHYL-1,4-BENZOQUINONE ALKYL ALCOHOL DERIVATIVE AND USE THEREOF” (BEIJING ANJIANXI BIO-MEDICAL TECHNOLOGY CO., LTD., priority 2021, published 2025)
Marks after values point to notes of the source that are not given here.

Test system: human gastric cancer NCI-N87 transplanted tumor
Experiment: Example 3: tumor growth in NCI-N87 transplanted tumor model in nude mice
Type: in vivo, BALB/c nude mice
Protocol: Female BALB/c nude mice (age: 6 to 7 weeks) were purchased from Beijing Vital River Laboratory Animal Technology Co., Ltd. The mice were raised in an SPF animal room at a temperature of 20 to 25° C., a relative humidity of 40% to 70%, and a cycle of 12 hours of light and 12 hours of dark. The animals had free access to water and food. After about 1 week of normal feeding, mice with good physical condition after the veterinary examination were selected for this assay. Before grouping, a marker was used to mark on the base of the animals' tail. After grouping, each animal was marked with an ear cutout.
The solution was prepared before each administration. An appropriate amount of DDP was weighed and put into a glass bottle. Then, an appropriate volume of physiological saline was added to the bottle, and vortexed (may be heated in a water bath to 50 to 60° C.) to completely dissolve the drug.
An appropriate amount of the compound was weighed and added to an appropriate volume of dimethylacetamide (DMA). The mixture was vortexed to prepare a stock solution (8 mg·mL^−1). The stock solution was prepared once a week, divided into packages and then stored in a 2 to 8° C. refrigerator. One tube was taken out before each administration, and an appropriate volume of 30% Solutol and PEG400 was added while vortexing. The mixture was vortexed and mixed well. Then, an appropriate volume of physiological saline was added, and mixed well to give an administration formulation with a concentration of 0.4 mg·mL^−1, in which the volume ratio of DMA: 30% Solutol: PEG 400: physiological saline was 5:20:20:55.
Human gastric cancer cells NCI-N87 were obtained from the Cell Bank of the Type Culture Collection Committee of Chinese Academy of Sciences (cryopreserved in liquid nitrogen in the laboratory).
NCI-N87 cells were routinely cultured in a RPMI-1640 culture medium containing 10% fetal bovine serum under culture conditions of 37° C. and 5% CO2. The cells were digested with 0.25% trypsin, and passaged according to the cell growth conditions with a passaging ratio of 1:3 to 1:5.
The NCI-N87 cells in the logarithmic growth phase were collected, counted and resuspended in a serum-free RPMI-1640 medium, and the cell concentration was adjusted to 5×10^7 cells/mL. The cells were pipetted with a pipette to disperse them evenly, and the cells were put into a 50-mL centrifuge tube, which was placed in an ice box. A 1-mL syringe was used to draw the cell suspension, which was injected subcutaneously into the axilla of the front right limb of a nude mouse. Each animal was inoculated with 100 μL (5×10^6 cells/mouse) to establish an NCI-N87 transplanted tumor model in nude mice. After the inoculation, the animal status and tumor growth were regularly observed, and the tumor diameter was measured using an electronic vernier caliper. The data were input into an Excel spreadsheet to calculate the tumor volume. When the tumor volume reached 100 to 300 mm^3, 72 animals in good health and with similar tumor volumes were selected and divided into 9 groups (n=8) using randomized block method. The day of grouping was regarded as the first day of the assay (D1). After the start of the assay, the tumor diameter was measured twice a week, the tumor volume was calculated, and the animal body weight was also weighed and recorded.
The calculation formula of tumor volume (TV) is as follows: […]
wherein l represents the long diameter of a tumor (mm); and w represents the short diameter of a tumor (mm).
On the last day of the assay (D44), the animals were anesthetized using CO2 inhalation 1 hour after administration (R01) and sacrificed, and tumor tissues were collected, weighed, and photographed.
The calculation formula of tumor growth inhibition rate TGI (%) is: […]

[1] = D16, DDP 4/4/5/5 mg/kg i.p. QW×4
[2] = D20, DDP 4/4/5/5 mg/kg i.p. QW×4
[3] = D23, DDP 4/4/5/5 mg/kg i.p. QW×4
[4] = D27, DDP 4/4/5/5 mg/kg i.p. QW×4
[5] = D30, DDP 4/4/5/5 mg/kg i.p. QW×4
[6] = D34, DDP 4/4/5/5 mg/kg i.p. QW×4
[7] = D37, DDP 4/4/5/5 mg/kg i.p. QW×4
[8] = D44, DDP 4/4/5/5 mg/kg i.p. QW×4

`N.N.[Cl][Pt][Cl]` [DDP, cisplatin] was tested, and the Mean tumor volume (D13, DDP 4/4/5/5 mg/kg i.p. QW×4) was 141 ± 9 mm^3, the Mean tumor volume [1] was 194 ± 18 mm^3 and the “tumor growth inhibition rate” value [1] was “(36%)”. The Mean tumor volume [2] was 245 ± 22 mm^3, the “tumor growth inhibition rate” value [2] was “(37%)” and the Mean tumor volume [3] was 276 ± 28* mm^3. The “tumor growth inhibition rate” value [3] was “(43%)”, the Mean tumor volume [4] was 351 ± 22** mm^3 and the “tumor growth inhibition rate” value [4] was “(46%)”. For the same compound, the Mean tumor volume [5] was 413 ± 27** mm^3, the “tumor growth inhibition rate” value [5] was “(51%)” and the Mean tumor volume [6] was 492 ± 33** mm^3. For the same compound, the “tumor growth inhibition rate” value [6] was “(54%)”, the Mean tumor volume [7] was 580 ± 47** mm^3 and the “tumor growth inhibition rate” value [7] was “(55%)”. For the same compound, the Mean tumor volume [8] was 684 ± 45** mm^3 and the “tumor growth inhibition rate” value [8] was “(56%)”.

`COC1=C(OC)C(=O)C(CCCCCCCCCCOC(=O)Cc2c(C)n(C(=O)c3ccc(Cl)cc3)c3ccc(OC)cc23)=C(C)C1=O` [compound of formula (I)] was tested, and the Mean tumor volume (D13, 2 mg/kg i.g. BID×28) was 141 ± 9 mm^3, the Mean tumor volume (D13, 6 mg/kg i.g. BID×28) was 140 ± 8 mm^3 and the Mean tumor volume (D13, 18 mg/kg i.g. BID×28) was 134 ± 8 mm^3. For the same compound, the Mean tumor volume (D16, 2 mg/kg i.g. BID×28) was 180 ± 17 mm^3, the “tumor growth inhibition rate” value (D16, 2 mg/kg i.g. BID×28) was “(52%)” and the Mean tumor volume (D16, 6 mg/kg i.g. BID×28) was 183 ± 10 mm^3. The “tumor growth inhibition rate” value (D16, 6 mg/kg i.g. BID×28) was “(48%)”, the Mean tumor volume (D16, 18 mg/kg i.g. BID×28) was 175 ± 19 mm^3 and the “tumor growth inhibition rate” value (D16, 18 mg/kg i.g. BID×28) was “(50%)”. For the same compound, the Mean tumor volume (D20, 2 mg/kg i.g. BID×28) was 218 ± 17** mm^3, the “tumor growth inhibition rate” value (D20, 2 mg/kg i.g. BID×28) was “(53%)” and the Mean tumor volume (D20, 6 mg/kg i.g. BID×28) was 220 ± 11** mm^3. The “tumor growth inhibition rate” value (D20, 6 mg/kg i.g. BID×28) was “(51%)”, the Mean tumor volume (D20, 18 mg/kg i.g. BID×28) was 209 ± 27* mm^3 and the “tumor growth inhibition rate” value (D20, 18 mg/kg i.g. BID×28) was “(54%)”. For the same compound, the Mean tumor volume (D23, 2 mg/kg i.g. BID×28) was 253 ± 24** mm^3, the “tumor growth inhibition rate” value (D23, 2 mg/kg i.g. BID×28) was “(53%)” and the Mean tumor volume (D23, 6 mg/kg i.g. BID×28) was 255 ± 16** mm^3. The “tumor growth inhibition rate” value (D23, 6 mg/kg i.g. BID×28) was “(52%)”, the Mean tumor volume (D23, 18 mg/kg i.g. BID×28) was 245 ± 36* mm^3 and the “tumor growth inhibition rate” value (D23, 18 mg/kg i.g. BID×28) was “(54%)”. For the same compound, the Mean tumor volume (D27, 2 mg/kg i.g. BID×28) was 294 ± 30** mm^3, the “tumor growth inhibition rate” value (D27, 2 mg/kg i.g. BID×28) was “(60%)” and the Mean tumor volume (D27, 6 mg/kg i.g. BID×28) was 302 ± 24** mm^3. For the same compound, the “tumor growth inhibition rate” value (D27, 6 mg/kg i.g. BID×28) was “(58%)”, the Mean tumor volume (D27, 18 mg/kg i.g. BID×28) was 297 ± 48** mm^3 and the “tumor growth inhibition rate” value (D27, 18 mg/kg i.g. BID×28) was “(58%)”. The Mean tumor volume (D30, 2 mg/kg i.g. BID×28) was 332 ± 32** mm^3, the “tumor growth inhibition rate” value (D30, 2 mg/kg i.g. BID×28) was “(65%)” and the Mean tumor volume (D30, 6 mg/kg i.g. BID×28) was 348 ± 31** mm^3. For the same compound, the “tumor growth inhibition rate” value (D30, 6 mg/kg i.g. BID×28) was “(62%)”, the Mean tumor volume (D30, 18 mg/kg i.g. BID×28) was 354 ± 64** mm^3 and the “tumor growth inhibition rate” value (D30, 18 mg/kg i.g. BID×28) was “(60%)”. For the same compound, the Mean tumor volume (D34, 2 mg/kg i.g. BID×28) was 370 ± 41** mm^3, the “tumor growth inhibition rate” value (D34, 2 mg/kg i.g. BID×28) was “(70%)” and the Mean tumor volume (D34, 6 mg/kg i.g. BID×28) was 412 ± 37** mm^3. The “tumor growth inhibition rate” value (D34, 6 mg/kg i.g. BID×28) was “(64%)”, the Mean tumor volume (D34, 18 mg/kg i.g. BID×28) was 444 ± 79** mm^3 and the “tumor growth inhibition rate” value (D34, 18 mg/kg i.g. BID×28) was “(59%)”. The Mean tumor volume (D37, 2 mg/kg i.g. BID×28) was 450 ± 46** mm^3, the “tumor growth inhibition rate” value (D37, 2 mg/kg i.g. BID×28) was “(68%)” and the Mean tumor volume (D37, 6 mg/kg i.g. BID×28) was 508 ± 38** mm^3. For the same compound, the “tumor growth inhibition rate” value (D37, 6 mg/kg i.g. BID×28) was “(62%)”, the Mean tumor volume (D37, 18 mg/kg i.g. BID×28) was 492 ± 87** mm^3 and the “tumor growth inhibition rate” value (D37, 18 mg/kg i.g. BID×28) was “(64%)”. The Mean tumor volume (D44, 2 mg/kg i.g. BID×28) was 536 ± 52** mm^3, the “tumor growth inhibition rate” value (D44, 2 mg/kg i.g. BID×28) was “(68%)” and the Mean tumor volume (D44, 6 mg/kg i.g. BID×28) was 595 ± 57** mm^3. For the same compound, the “tumor growth inhibition rate” value (D44, 6 mg/kg i.g. BID×28) was “(63%)”, the Mean tumor volume (D44, 18 mg/kg i.g. BID×28) was 590 ± 113** mm^3 and the “tumor growth inhibition rate” value (D44, 18 mg/kg i.g. BID×28) was “(63%)”. For the same compound, the “anti-tumor effect compared with cisplatin” value (NCI-N87 transplanted tumor model, summary of Table 5) was “better anti-tumor effect”.
